Test results published in patent US7981438B2, “Use of α-mangostin as a mosquito larvicide” (Wisconsin Alumni Research Foundation, priority 2007, dated 2011).
Counter-ions that a name gives are not always drawn.

Legend:
mosquito larvae = assay: toxicity assessment (larval mortality, Probit LD50) in mosquito larvae; format: in vivo; settings: for LD50 in 4th instar (ppm) / LD50 (uM) in 4th instar: 4th instar larvae
Experimental: Compound was tested at concentrations within the range of 0.65-25.00 μM. Each assay included 60 larvae (1st instar or 4th instar) in 60 ml ddH2O containing either compound or control agent, mortality was recorded until 90% adult emerge rate. The percentage of mortality was transformed into Probit value and plotted against concentration to determine the LD50 value. Each assay was repeated at least three times with different batches of larvae. The mean and standard deviation values are listed above. ND=not determined due to very low mortality.
Compounds were tested at concentrations within the range of 0.65-25.00 μM. Each assay included 60 larvae (1st instar or 4th instar) in 60 ml ddH2O containing either compound or control agent. Mortality was recorded until 90% adult emerge rate. The percentage of mortality was transformed into Probit value and plotted against concentrations to determine the LD50 value. Each assay was repeated at least three times with different batches of larvae.

[1] = tested on: mosquito 4th instar larvae; assay: neutral lipid levels in the midgut of 4th instar larvae (Red Oil O staining); format: in vivo
Experimental: The newly molted 4th instar larvae were treated with DMSO (the negative control), 25 μM SCPI-1 (the positive control), and 10 μM α-mangostin. The midgut tissue was dissected out at the indicated point in time after treatment initiation. The dissected treated midgut tissue was stained with Red Oil O for neutral lipids in situ.

recombinant AeSCP-2 = target: T1, recombinant AeSCP-2 (Aedes aegypti, UniProt Q86PR3); assay: in vitro competition binding assay, NBD-cholesterol binding to AeSCP-2; set-up: species or system mosquito; settings: at 0.1 mM concentration
T1 sequence (Q86PR3 1-110): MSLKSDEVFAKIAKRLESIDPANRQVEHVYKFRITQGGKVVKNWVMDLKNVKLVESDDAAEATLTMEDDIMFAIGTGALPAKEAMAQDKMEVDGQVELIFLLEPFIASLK
Experimental: At 0.1 mM concentration, α-mangostin decreased NBD-cholesterol binding to AeSCP-2 by 23-29%. […] Specifically, FIG. 1 illustrates the inhibitory effect of α-mangostin on NBD-cholesterol binding to recombinant AeSCP-2. RFU=relative NBD-cholesterol fluorescent unit normalized with NBD-cholesterol background readings. The assays that were used included 5 μM NBD-cholesterol+5 uM AeSCP-2+increasing concentrations of α-mangostin in […] potassium phosphate buffer (pH 7.4).

complement C3 = settings: compared with phytoestrogens; FIG. 5, Hopert et al. 1998; cited from earlier work
[2] = 1st instar larvae, same LD50 expressed in ppm
[3] = 1st instar larvae, tested 0.65-25.00 μM, mean ± SD
[4] = tested 0.65-25.00 μM, mean ± SD

Row | Compound | LD50 in 1st instar (ppm) (mosquito larvae; [2]) | LD50 (uM) in 1st instar (mosquito larvae; [3]) | LD50 in 4th instar (ppm) (mosquito larvae; same LD50 expressed in ppm) | LD50 (uM) in 4th instar (mosquito larvae; [4]) | fraction of midgut neutral lipids depleted ([1]; 25 μM SCPI-1, 24 hour-old 4th instar larvae) | decrease of NBD-cholesterol binding to AeSCP-2 (recombinant AeSCP-2) | neutral lipids in the midgut ([1]; 10 μM α-mangostin, after 24 hours treatment, 4th instar larvae) | reproductive side effects in mammals, measured by formation of complement C3 (complement C3) | LD50 (uM) in 1st instar (mosquito larvae; mosquito, in vivo) | LD50 in 1st instar (ppm) (mosquito larvae; mosquito, in vivo)
1 | CC(=O)Nc1ccc(Nc2nc(-c3ccc(Cl)c(Cl)c3)cs2)cc1 [SCPI-1, N-(4-{[4-(3,4-dichlorophenyl)-1,3-thiazol-2-yl]amino}phenyl)acetamide hydrobromide, reference compound] | 1.93 ppm | 4.21 ± 0.38 µM | (or, 11.04 ppm) | 24.04 ± 4.16 µM | about ½ |  |  |  |  | 
2 | obtusauione | 1.62 ppm | 6.36 ± 1.70 µM |  |  |  |  |  |  |  | 
3 | COc1c(O)cc2oc3cc(O)c(CC=C(C)C)c(O)c3c(=O)c2c1CC=C(C)C [α-mangostin, 3,6,8-Trihydroxy-2-methoxy-1,7-bis(3-methylbut-2-enyl)xanthen-9-one] | 1.12 ppm | 2.73 ± 2.46 µM | (or, 4.18 ppm) | 10.18 ± 1.49 µM |  | 23-29% | scant amounts of neutral lipids | does not induce reproductive side effects |  | 
4 | COc1c2c(c(CC=C(C)C)c3oc(=O)c(-c4ccc(O)cc4)c(O)c13)OC(C)(C)C=C2 [lonchocarpic acid] | 5.21 ppm | 11.99 ± 1.93 µM |  |  |  |  |  |  |  | 
5 | COc1ccc(-c2cc(=O)c3c(O)cc(O)c(-c4cc(-c5cc(=O)c6c(O)cc(O)cc6o5)ccc4OC)c3o2)cc1 [isoginkgetin] |  |  |  |  |  |  |  |  | 11.29 ± 3.00 µM | 6.60 ppm
